# Measured values taken from paper PMC8301926 (Biomolecules, 2021).
# “And” between values parts separate entries of the source, which are not always exact repeats. Identical values can stand only once.
# Columns and labels:
# [1] = biological target: T1, human M3 muscarinic acetylcholine receptor (hM3R) (Homo sapiens, UniProt P20309); experiment: M3 (h) functional GPCR assay, antagonist effect, intracellular Ca2+; format: cell-based; details: CHO
# T1 construct: host or cells: CHO cells
# [2] = biological target: T2, human M5 muscarinic acetylcholine receptor (hM5R) (Homo sapiens, UniProt P08912); experiment: M5 (h) functional GPCR assay, agonist effect, intracellular Ca2+; format: cell-based; details: 100 µM; % of control response to 624-nM acetylcholine; RBL cells
# T2 construct: host or cells: RBL (rat basophilic leukemic) cells
# T2 sequence (P08912 1-532): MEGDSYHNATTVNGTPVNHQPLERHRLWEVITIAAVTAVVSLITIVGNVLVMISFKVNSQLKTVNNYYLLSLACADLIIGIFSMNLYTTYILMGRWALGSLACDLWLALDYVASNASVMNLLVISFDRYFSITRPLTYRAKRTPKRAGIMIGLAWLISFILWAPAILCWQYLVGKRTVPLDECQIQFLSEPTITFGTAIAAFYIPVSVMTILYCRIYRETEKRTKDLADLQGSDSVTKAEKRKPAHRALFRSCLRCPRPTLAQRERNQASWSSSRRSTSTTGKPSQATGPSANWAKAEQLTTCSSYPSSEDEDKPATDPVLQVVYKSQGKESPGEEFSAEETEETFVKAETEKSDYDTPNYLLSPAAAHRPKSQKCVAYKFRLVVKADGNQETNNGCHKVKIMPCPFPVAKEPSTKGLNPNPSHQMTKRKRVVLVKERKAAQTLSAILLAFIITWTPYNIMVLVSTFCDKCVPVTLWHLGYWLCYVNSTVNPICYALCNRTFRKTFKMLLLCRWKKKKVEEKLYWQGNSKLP
# [3] = biological target: T3, human M2 muscarinic acetylcholine receptor (hM2R) (Homo sapiens, UniProt P08172); experiment: M2 (h) functional GPCR assay, antagonist effect, cAMP HTRF; format: cell-based; details: CHO
# T3 construct: host or cells: CHO cells
# T3 sequence (P08172 1-466): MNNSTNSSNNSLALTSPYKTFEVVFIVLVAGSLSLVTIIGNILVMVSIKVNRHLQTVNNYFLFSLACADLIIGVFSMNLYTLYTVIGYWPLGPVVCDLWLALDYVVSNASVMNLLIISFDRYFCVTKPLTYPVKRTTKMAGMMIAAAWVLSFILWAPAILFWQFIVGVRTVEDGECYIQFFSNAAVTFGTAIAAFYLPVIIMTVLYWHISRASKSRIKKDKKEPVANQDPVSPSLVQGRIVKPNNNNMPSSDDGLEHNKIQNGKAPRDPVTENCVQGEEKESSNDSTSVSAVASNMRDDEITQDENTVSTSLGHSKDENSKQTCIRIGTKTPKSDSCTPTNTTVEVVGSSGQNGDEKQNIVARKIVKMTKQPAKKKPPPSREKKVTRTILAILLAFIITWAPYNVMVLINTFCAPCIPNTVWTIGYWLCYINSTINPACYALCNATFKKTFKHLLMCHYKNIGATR
# [4] = biological target: T4, recombinant human monoamine oxidase B (hMAO-B) (Homo sapiens, UniProt P27338); experiment: hMAO-B enzyme kinetics (Lineweaver-Burk, Dixon, secondary plots); format: biochemical; details: for Ki: hMAO-B, from secondary plots; for Inhibition Type, hMAO-B: Lineweaver-Burk and Dixon plots
# T4 sequence (P27338 1-520): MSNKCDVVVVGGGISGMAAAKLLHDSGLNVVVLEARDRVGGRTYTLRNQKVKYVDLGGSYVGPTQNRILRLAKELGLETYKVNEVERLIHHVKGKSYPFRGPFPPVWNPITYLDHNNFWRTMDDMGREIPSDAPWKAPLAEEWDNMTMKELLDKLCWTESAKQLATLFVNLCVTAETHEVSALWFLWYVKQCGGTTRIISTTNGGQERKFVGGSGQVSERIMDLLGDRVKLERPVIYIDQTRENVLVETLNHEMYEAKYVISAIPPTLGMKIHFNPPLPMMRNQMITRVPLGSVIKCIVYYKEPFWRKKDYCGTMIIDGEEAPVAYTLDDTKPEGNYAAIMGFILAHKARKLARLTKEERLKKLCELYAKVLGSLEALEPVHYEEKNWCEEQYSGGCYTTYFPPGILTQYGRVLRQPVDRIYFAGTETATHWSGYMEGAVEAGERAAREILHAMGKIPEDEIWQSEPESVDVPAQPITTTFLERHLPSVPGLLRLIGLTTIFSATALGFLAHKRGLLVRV
# [5] = biological target: T5, recombinant human monoamine oxidase A (hMAO-A) (Homo sapiens, UniProt P21397); experiment: hMAO-A inhibition, MAO-Glo chemiluminescent assay; format: biochemical
# T5 sequence (P21397 1-527): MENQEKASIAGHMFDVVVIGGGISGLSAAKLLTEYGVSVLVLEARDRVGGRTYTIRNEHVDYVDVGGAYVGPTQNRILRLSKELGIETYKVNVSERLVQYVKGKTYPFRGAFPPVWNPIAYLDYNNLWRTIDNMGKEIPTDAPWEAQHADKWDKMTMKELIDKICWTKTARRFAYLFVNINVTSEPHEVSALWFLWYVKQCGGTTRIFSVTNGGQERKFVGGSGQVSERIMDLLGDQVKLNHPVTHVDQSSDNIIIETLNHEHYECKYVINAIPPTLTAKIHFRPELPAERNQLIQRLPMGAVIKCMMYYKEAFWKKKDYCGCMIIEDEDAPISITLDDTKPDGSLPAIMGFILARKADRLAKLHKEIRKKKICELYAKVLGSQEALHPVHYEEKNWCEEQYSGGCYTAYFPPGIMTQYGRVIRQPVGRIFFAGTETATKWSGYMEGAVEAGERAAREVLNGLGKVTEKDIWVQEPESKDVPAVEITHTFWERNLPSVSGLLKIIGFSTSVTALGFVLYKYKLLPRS
# [6] = biological target: T6, human M1 muscarinic acetylcholine receptor (hM1R) (Homo sapiens, UniProt P11229); experiment: M1 (h) functional GPCR assay, agonist effect, intracellular Ca2+; format: cell-based; details: 100 µM; % of control response to 100-nM acetylcholine; CHO cells
# T6 construct: host or cells: CHO cells
# T6 sequence (P11229 whole entry): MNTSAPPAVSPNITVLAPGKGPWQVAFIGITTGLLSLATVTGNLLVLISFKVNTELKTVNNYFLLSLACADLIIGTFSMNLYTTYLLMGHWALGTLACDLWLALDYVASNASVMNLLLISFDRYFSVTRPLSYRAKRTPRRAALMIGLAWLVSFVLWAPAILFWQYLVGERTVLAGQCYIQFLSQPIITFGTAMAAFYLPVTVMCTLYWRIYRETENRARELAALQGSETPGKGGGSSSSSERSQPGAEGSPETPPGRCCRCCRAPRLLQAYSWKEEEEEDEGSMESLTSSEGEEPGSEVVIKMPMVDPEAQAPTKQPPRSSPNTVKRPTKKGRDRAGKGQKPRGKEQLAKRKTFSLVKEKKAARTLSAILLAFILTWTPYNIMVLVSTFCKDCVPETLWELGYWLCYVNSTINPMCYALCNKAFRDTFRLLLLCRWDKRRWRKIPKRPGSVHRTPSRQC
# [7] = biological target: T2, human M5 muscarinic acetylcholine receptor (hM5R); experiment: M5 (h) functional GPCR assay, antagonist effect, intracellular Ca2+; format: cell-based; details: RBL
# [8] = biological target: T4, recombinant human monoamine oxidase B (hMAO-B); experiment: hMAO-B inhibition, MAO-Glo chemiluminescent assay; format: biochemical; details: mean ± SD of triplicate experiments
# [9] = biological target: T3, human M2 muscarinic acetylcholine receptor (hM2R); experiment: M2 (h) functional GPCR assay, agonist effect, cAMP HTRF; format: cell-based; details: 100 µM; % of control response to 3-µM acetylcholine; CHO cells
# T1 sequence (P20309 whole entry): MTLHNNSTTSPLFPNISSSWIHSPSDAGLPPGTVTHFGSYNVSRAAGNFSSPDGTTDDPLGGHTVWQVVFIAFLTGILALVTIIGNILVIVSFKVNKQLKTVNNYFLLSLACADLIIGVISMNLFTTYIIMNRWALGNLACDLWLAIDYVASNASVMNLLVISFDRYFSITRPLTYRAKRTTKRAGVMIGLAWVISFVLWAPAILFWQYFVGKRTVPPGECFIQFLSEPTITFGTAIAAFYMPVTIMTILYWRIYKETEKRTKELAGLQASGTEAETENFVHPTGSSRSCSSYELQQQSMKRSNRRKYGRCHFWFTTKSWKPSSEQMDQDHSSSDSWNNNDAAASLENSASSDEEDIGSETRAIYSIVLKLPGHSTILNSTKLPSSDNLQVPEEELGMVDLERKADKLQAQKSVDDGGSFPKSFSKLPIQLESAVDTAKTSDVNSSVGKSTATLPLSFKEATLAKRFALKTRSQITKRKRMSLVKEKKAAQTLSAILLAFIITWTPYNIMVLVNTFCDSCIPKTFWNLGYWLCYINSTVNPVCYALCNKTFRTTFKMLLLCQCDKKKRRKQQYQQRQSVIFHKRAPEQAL
structure (smiles),measurement,setting,value
Cc1coc2c1C(=O)C(=O)c1c-2ccc2c(C)cccc12 [Tanshinone I],inhibition at 100 µM,[1],3.3 ± 11.2%
same,"% Stimulation, M5",[2],−1.6 ± 0.85%
same,inhibition at 100 µM,[3],35.8 ± 4.74%
same,Ki,[4]; Kic,25.6 ± 1.1 µM
same,Ki,[4]; Kiu,17.4 ± 0.78 µM
same,"Inhibition Type, hMAO-B",[4],Mixed
same,"Inhibition Type, hMAO-B",[4]; listed as 1,mixed mode of inhibition
same,IC50,"[5]; IC50, hMAO-A, mean ± SD of triplicate experiments",< 10 µM and 2.62 µM
same,SI (selectivity index),[5]; ratio of the IC50 value for hMAO-A inhibition to that for hMAO-B inhibition,0.11
same,"% Stimulation, M1",[6],2.5 ± 0.21%
same,inhibition at 100 µM,[7],-0.5 ± 0.42%
same,IC50,[8],24.9 ± 3.82 µM
same,"% Stimulation, M2",[9],12.6 ± 3.61%
